Assay results as given in US20120142730A1 (priority 2010, published 2012).

Tests used:
[1] = system: subjects with relapsing remitting multiple sclerosis (RRMS); assay: ALLEGRO phase III trial: safety and tolerability; type: in vivo, human
Description: Eligible subjects were equally randomized 1:1 into one of the following treatment arms: • 1. […] 21, 2007 (see, page 10, line 5 to page 11, line 3). • 2. Matching placebo for laquinimod arm: one capsule is administered once daily.
The following assessments were performed at specified time points: • 1. Vital signs were measured at each study visit. • 2. A physical examination is performed at months −1 (screening), (baseline) 1, 3, 6, 12, 18 and 24 (termination/early discontinuation core study). In case of the 6 months extended study, additional examination was performed at month 30 (termination/early discontinuation of extended study). • 3. The following safety clinical laboratory tests were performed: • a. Complete blood count (CBC) with differential—at all scheduled visits. A reticulocyte count was added to the CBC at months 0 (baseline) and 24/30 (termination/early discontinuation). • b. Serum chemistry (including electrolytes, liver enzymes, direct and total bilirubin and pancreatic amylase and CPK), and urinalysis—at all scheduled visits. • c. A rapid urine β-hCG test was performed in women of child-bearing potential at baseline (month 0) and at each scheduled study visit thereafter (at site). • d. β-hCG in women of child-bearing potential was performed at all scheduled visits. • e. Starting after visit Month 3 a rapid urine β-hCG test was performed in women of child-bearing potential every 28 (±2) days. […] Adverse Events (AEs) are monitored throughout the study. • 9. Concomitant medications are monitored throughout the study. • 10. […] MS functional Composite (MSFC) was assessed at months −1 (screening) (three practices for training purposes only), at month 0 (baseline), 6, 12, 18 and 24 (termination/early discontinuation). […] Subject-reported fatigue was assessed by the Modified Fatigue Impact Scale (MFIS) at months 0, 6, 12, 18, and 24 (termination/early discontinuation). […] The general health status was assessed by the EuroQoL (EQ5D) questionnaire at month 0 (baseline) and month 24 (termination/early discontinuation of the study). […]

[2] = system: subjects with relapsing remitting multiple sclerosis (RRMS); assay: ALLEGRO phase III trial: disability endpoints (EDSS, MSFC); type: in vivo, human; settings: for Patients with confirmed (3 months) EDSS progression: after 24 months
Description: Eligible subjects were equally randomized 1:1 into one of the following treatment arms: • 1. […] 21, 2007 (see, page 10, line 5 to page 11, line 3). • 2. Matching placebo for laquinimod arm: one capsule is administered once daily. Secondary endpoints were disability progression as measured by the EDSS and the Multiple Sclerosis Functional Composite (MSFC). Confirmed disability progression was defined as an increase of ≧1.0 EDSS point from baseline if baseline EDSS was between 0 and 5.0, or an increase of ≧0.5 point if baseline EDSS was ≧5.5. In order to confirm EDSS progression, these increases had to be sustained for at least three months. Additional predefined disability endpoints include the proportion of patients without confirmed disability progression at 24 months; confirmed disability progression (defined as change in EDSS scores≧1.0 points for baseline EDSS 0 to 5.0 or ≧5.5) sustained for six months; the accumulation of physical disability as measured by mean EDSS and the mean change in EDSS from baseline to last observed value (LOV). For the MSFC, the measure was the total MSFC z score at 24 months (including patients who terminated after 12 months). The 9-hole peg test (9HPT) and the Paced Auditory Serial Addition Test (PASAT) were performed three times at screening to reduce confounding training effects during the trial. The analysis of the accumulation of physical disability is based on Cox's Proportional Hazard model. The analysis of MSFC is based on baseline-adjusted Analysis of Covariance. The analysis of the secondary MRI endpoints is based on baseline-adjusted Negative Binomial Regression. To control against type-I error, the secondary endpoints were analyzed only after a significant effect was found for the primary endpoint. Likewise, the study's overall type-I error was further controlled in the analysis of the secondary endpoints by applying the following gate-keeping approach: both the cumulative number of new/enlarging T2 and the cumulative number of GdE lesions at months 12 and 24 were tested simultaneously and needed to be statistically significant at p<0.05, or one needed to be significant at p<0.025 if the other endpoint was not statistically significant at the 5% level. If the above condition was met, the study then proceeded to the analysis of the confirmed EDSS progression endpoint, if this endpoint was significant at 5% level, the analysis was done for the total MSFC z-scores. The analysis of risk to confirmed disability progression using the ITT cohort was based on Cox's Proportional Hazard model adjusted to baseline EDSS, log of the prior 2 year number of relapses +1 and geographical region. The MSFC at month 24 was analyzed using a baseline-adjusted ANCOVA (SAS@PROC GLM) with baseline MSFC as 1 degree of freedom covariate and baseline EDSS score, log of the 2-year prior relapse rate +1 and country or geographical region as additional covariates.

[3] = 0.6 mg daily oral, listed as laquinimod

CCN(C(=O)c1c(O)c2c(Cl)cccc2n(C)c1=O)c1ccccc1 [Laquinimod, laquinimod]
Deaths ([1]; 0.6 mg daily oral, 24 months): No deaths
Time of occurrence of ALT elevations up to 5×ULN ([1]; human, in vivo): ≤ 6 months
Reversibility of ALT elevations up to 5×ULN ([1]; in vivo): all were reversible
Median EDSS score at LOV ([2]; 0.6 mg daily oral): 2.5
Decrease in the risk for 6 month confirmed EDSS progression ([2]; 0.6 mg daily oral vs placebo): 48%
Reduction in risk of confirmed progression requiring persistence of EDSS change at the last available visit ([2]; 0.6 mg daily oral vs placebo): 35%
Time to confirmed (3 Ms) progression EDSS: reduction of risk to progress ([2]; 0.6 mg daily oral vs placebo): 36% reduction of risk
Adjusted mean total MSFC z score at 24 months, difference from placebo ([2]; 0.6 mg daily oral vs placebo, p=0.5893): no significant differences
Time to confirmed (3 Ms) progression EDSS: reduction of risk to progress ([2]; 0.6 mg daily oral vs placebo, listed as laquinimod): 36%
Patients with confirmed (3 months) EDSS progression ([2]; 0.6 mg daily oral): 9.8% progressed
Patients with confirmed (3 months) EDSS progression [2, 3]: 9.8%
Mean EDSS score at LOV ([2]; 0.6 mg daily oral, baseline adjusted ANCOVA): 2.68
Patients with no confirmed disability progression at LOV ([2]; 0.6 mg daily oral, n = 550): (90.2%)
Patients with no confirmed disability progression at LOV, number ([2]; 0.6 mg daily oral, n = 550): 496
MSFC total z score at 24 months (including early terminations after 12 months), mean [2, 3]: 0.056
Patients who progressed and also had a relapse during the study ([2]; post-hoc subgroup analysis, 33/54 patients): 61.1%
